Data from ChEMBL document CHEMBL3860060, “Discovery and Optimization of 1-Phenoxy-2-aminoindanes as Potent, Selective, and Orally Bioavailable Inhibitors of the Na+/H+ Exchanger Type 3 (NHE3)” (J Med Chem, 2016).

Experiments:
[1] = Stability of the compound; type: physicochemical
[2] = Solubility of the compound in aqueous buffer; type: physicochemical
[3] = Distribution coefficient, log D of the compound at pH 7.4; type: physicochemical; details: octanol/water
[4] = Lipophilicity, log P of the compound; type: physicochemical; details: octanol/water
[5] = Cmax in Sprague-Dawley rat at 10 mg/kg, po administered as single dose by ESI-LC-MS/MS method; type: ADME, organism-based; parameters: dose 10 mg/kg, route oral; details: in vivo
[6] = Tmax in Sprague-Dawley rat at 10 mg/kg, po administered as single dose by ESI-LC-MS/MS method; type: ADME, organism-based; details: in vivo
[7] = Plasma concentration in Sprague-Dawley rat at 10 mg/kg, po after 24 hrs administered as single dose by ESI-LC-MS/MS method; type: ADME, organism-based
[8] = Half life in Sprague-Dawley rat at 10 mg/kg, po administered as single dose by ESI-LC-MS/MS method; type: ADME, organism-based; details: in vivo
[9] = Oral bioavailability in Sprague-Dawley rat at 10 mg/kg administered as single dose by ESI-LC-MS/MS method; type: ADME, organism-based; details: in vivo
[10] = Ratio of AUC in Sprague-Dawley rat at 100 mg/kg, po administered as single dose by ESI-LC-MS/MS method to AUC in Sprague-Dawley rat at 10 mg/kg, po administered as single dose by ESI-LC-MS/MS method; type: ADME, organism-based; details: in vivo
[11] = Ratio of Cmax in Sprague-Dawley rat at 100 mg/kg, po administered as single dose by ESI-LC-MS/MS method to Cmax in Sprague-Dawley rat at 10 mg/kg, po administered as single dose by ESI-LC-MS/MS method; type: ADME, organism-based; details: in vivo
[12] = Ratio of AUC in Sprague-Dawley rat at 300 mg/kg, po administered as single dose by ESI-LC-MS/MS method to AUC in Sprague-Dawley rat at 100 mg/kg, po administered as single dose by ESI-LC-MS/MS method; type: ADME, organism-based; details: in vivo
[13] = Tmax in Duroc Landrace pig at 3 mg/kg, po administered as single dose by ESI-LC-MS/MS method; type: ADME, organism-based, Sus scrofa; details: in vivo
[14] = Half life in Duroc Landrace pig at 3 mg/kg, po administered as single dose by ESI-LC-MS/MS method; type: ADME, organism-based, Sus scrofa; details: in vivo
[15] = Oral bioavailability in Duroc Landrace pig at 3 mg/kg administered as single dose by ESI-LC-MS/MS method; type: ADME, organism-based, Sus scrofa; details: in vivo
[16] = Oral bioavailability in urethane-chloralose anesthetized pig at 3 mg/kg, id; type: ADME, organism-based, Sus scrofa; details: in vivo
[17] = system: Sus scrofa; experiment: Inhibition of upper airway collapsibility in urethane-chloralose anesthetized pig assessed as time duration for onset of action at 1 mg/kg, id after 4 hrs; type: functional
[18] = system: Sus scrofa; experiment: Inhibition of upper airway collapsibility in urethane-chloralose anesthetized pig assessed as time duration for onset of action at 3 mg/kg, id after 4 hrs; type: functional
[19] = Toxicity in anesthetized mongrel dog assessed as induction of major hemodynamic changes at 10 mg/kg, iv; type: organism-based, Canis lupus familiaris; details: in vivo
[20] = Toxicity in anesthetized mongrel dog assessed as induction of major electrophysiological changes at 10 mg/kg, iv; type: organism-based, Canis lupus familiaris; details: in vivo

For `Cc1nnc(C)n1-c1ccc(O[C@H]2c3cc(Cl)cc(Cl)c3C[C@@H]2N2CC[C@@H](O)C2)c(F)c1.O=P(O)(O)O`, the Stability [1] was “Stable”, the solubility [2] was “Soluble” and the logD [3] was 2.06. For the same compound, the logP [4] was 2.05, the Cmax [5] was 570 ng/mL and the Tmax [6] was 1 h. It also gave a concentration at 24 h [7] of under 1 ng/mL, a half-life [8] of 2.7 h and a bioavailability [9] of 42%. It also gave a Ratio [10] of 2.3, a Ratio [11] of 2.3 and a Ratio [12] of 1.1. It also gave a Tmax [13] of 0.5 h, a half-life [14] of 18 h and a bioavailability [15] of 18 to 98%. For the same compound, the bioavailability [16] was 61%, the Time [17] was 1 h and the Time [18] was 1.5 h. For the same compound, the Activity [19] was “Non-Toxic” and the Activity [20] was “Non-Toxic”.
